US8921328B2, “E-selectin antagonists” (GlycoMimetics, Inc., priority 2010, dated 2014)

What was measured:
[1] = biological target: T1, E-selectin/IgG construct (Homo sapiens, UniProt P16581); experiment: BIAcore surface plasmon resonance (SPR)-based assay, serial dilutions of the ligand (absolute KD); details: twofold serial dilutions, 600 s association/600 s dissociation, HBS-P + 20 mm calcium + DMSO 5% v/v, read-out: KD values (absolute binding affinities)
T1 construct: fused on or other part: IgG Fc part (human, since it is captured by goat anti-human Fc antibody), fused on as a capture handle
T1 sequence (P16581 22-175 limits assumed): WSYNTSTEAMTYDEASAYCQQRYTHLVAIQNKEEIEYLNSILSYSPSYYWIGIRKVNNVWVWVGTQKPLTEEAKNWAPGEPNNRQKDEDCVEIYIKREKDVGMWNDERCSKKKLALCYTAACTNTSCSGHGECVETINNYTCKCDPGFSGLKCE
Procedure: (§1) The biological evaluation of the E-selectin antagonists was performed by surface plasmon resonance (SPR). For this purpose, an E-selectin/IgG construct was captured onto a BIAcore chip surface bearing covalently linked goat anti-human Fc specific antibody (Biacore Life Sciences, Uppsala, Sweden).
Evaluation of E-Selectin Antagonists with Surface Plasmon Resonance (SPR)-Based Assay
Ten twofold serial dilutions of the ligand were non-randomly injected. The E-selectin antagonists were diluted in running buffer (HBS-P supplemented with […] calcium and DMSO 5% v/v). Antagonist dilutions were injected with a 600 s association time and 600 s dissociation time at a flow rate of 20 μL/min over the reference and the active flow cell. […] In addition, to prevent the presence of residual traces of compound, a blank injection was performed between each injection of ligand dilution. DMSO calibration and double referencing were applied to correct bulk effects and other systematic artifacts (subtraction of reference surface and blank injection).

[2] = biological target: T1, E-selectin/IgG construct; experiment: BIAcore SPR ranking procedure at a single concentration (relative binding affinity); details: SPR signal at single concentration 0.05 μM divided by molecular weight, normalized to internal standard; KD larger than for reference compound 64, however below 135 nM; read-out: KD values (relative* binding affinities, ranking procedure)
Procedure: as §1
The ranking of the antagonists was performed in order to obtain qualitative information on the binding strength of twenty indole antagonists. For the ranking, SPR signals were recorded at a single concentration (0.05 μM) and divided by the molecular weight of the compounds. The result obtained was normalized to the response obtained with an internal standard (63) in order to avoid problems related to the measurement on different chips with different surfaces. DMSO calibration and double referencing were applied to correct bulk effects and other systematic artifacts (subtraction of reference surface and blank injection).

Row | SMILES | Kd [1] | Kd [2]
1 | C[C@@H]1O[C@@H](O[C@@H]2[C@@H](C)C[C@@H](C(=O)NCCCc3cn(CCCn4ccc5cc([N+](=O)[O-])ccc54)nn3)C[C@H]2O[C@@H]2O[C@H](CO)[C@H](O)[C@H](O[C@@H](CC3CCCCC3)C(=O)O)[C@H]2OC(=O)c2ccccc2)[C@@H](O)[C@H](O)[C@@H]1O [Product 66, (1R,3R,4R,5S)-3-[2-O-Benzoyl-3-O-((1S)-1-carboxy-2-cyclohexyl-ethyl)-(β-D-galactopyranosyl)oxy]-4-[(α-L-fucopyranosyl)oxy]-5-methyl-N-(3-{1-[3-(5-nitro-1H-indol-1-yl)propyl]-1H-1,2,3-triazol-4-yl}propyl)cyclohexanecarboxamide] | 30 nM | –
2 | C[C@@H]1O[C@@H](O[C@@H]2[C@@H](C)C[C@@H](C(=O)NCc3cn(CCCn4ccc5cc([N+](=O)[O-])ccc54)nn3)C[C@H]2O[C@@H]2O[C@H](CO)[C@H](O)[C@H](O[C@@H](CC3CCCCC3)C(=O)O)[C@H]2OC(=O)c2ccccc2)[C@@H](O)[C@H](O)[C@@H]1O [Product 58, (1R,3R,4R,5S)-3-[2-O-Benzoyl-3-O-((1S)-1-carboxy-2-cyclohexyl-ethyl)-(β-D-galactopyranosyl)oxy]-4-[(α-L-fucopyranosyl)oxy]-5-methyl-N-({1-[3-(5-nitro-1H-indol-1-yl)propyl]-1H-1,2,3-triazol-4-yl}methyl)cyclohexanecarboxamide] | 57 nM | –
3 | C[C@@H]1O[C@@H](O[C@@H]2[C@@H](C)C[C@@H](C(=O)NCCc3cn(CCCCn4ccc5cc([N+](=O)[O-])ccc54)nn3)C[C@H]2O[C@@H]2O[C@H](CO)[C@H](O)[C@H](O[C@@H](CC3CCCCC3)C(=O)O)[C@H]2OC(=O)c2ccccc2)[C@@H](O)[C@H](O)[C@@H]1O [Product 63, (1R,3R,4R,5S)-3-[2-O-Benzoyl-3-O-((1S)-1-carboxy-2-cyclohexyl-ethyl)-(β-D-galactopyranosyl)oxy]-4-[(α-L-fucopyranosyl)oxy]-5-methyl-N-(2-{1-[4-(5-nitro-1H-indol-1-yl)butyl]-1H-1,2,3-triazol-4-yl}ethyl)cyclohexanecarboxamide] | 49 nM | –
4 | C[C@@H]1O[C@@H](O[C@@H]2[C@@H](C)C[C@@H](C(=O)NCCCc3cn(CCCn4ccc5cc(NC(=O)COCCOCCN)ccc54)nn3)C[C@H]2O[C@@H]2O[C@H](CO)[C@H](O)[C@H](O[C@@H](CC3CCCCC3)C(=O)O)[C@H]2OC(=O)c2ccccc2)[C@@H](O)[C@H](O)[C@@H]1O [Product 78, (1R,3R,4R,5S)—N-(3-{1-[3-(5-{2-[2-(2-Aminoethoxy)ethoxy]acetamido}-1H-indol-1-yl)propyl]-1H-1,2,3-triazol-4-yl}propyl)-3-[2-O-benzoyl-3-O-((1S)-1-carboxy-2-cyclohexyl-ethyl)-(β-D-galactopyranosyl)oxy]-4-[(α-L-fucopyranosyl)oxy]-5-methylcyclohexanecarboxamide] | – | > 89 nM
5 | CC(=O)Nc1ccc2c(ccn2CCCn2cc(CCCNC(=O)[C@@H]3C[C@H](C)[C@@H](O[C@@H]4O[C@@H](C)[C@@H](O)[C@@H](O)[C@@H]4O)[C@H](O[C@@H]4O[C@H](CO)[C@H](O)[C@H](O[C@@H](CC5CCCCC5)C(=O)O)[C@H]4OC(=O)c4ccccc4)C3)nn2)c1 [Product 77, (1R,3R,4R,5S)—N-(3-{1-[3-(5-Acetamido-1H-indol-1-yl)propyl]-1H-1,2,3-triazol-4-yl}propyl)-3-[2-O-benzoyl-3-O-((1S)-1-carboxy-2-cyclohexyl-ethyl)-(β-D-galactopyranosyl)oxy]-4-[(α-L-fucopyranosyl)oxy]-5-methylcyclohexanecarboxamide] | – | > 89 nM
6 | C[C@@H]1O[C@@H](O[C@@H]2[C@@H](C)C[C@@H](C(=O)NCCc3cn(CCn4ccc5cc([N+](=O)[O-])ccc54)nn3)C[C@H]2O[C@@H]2O[C@H](CO)[C@H](O)[C@H](O[C@@H](CC3CCCCC3)C(=O)O)[C@H]2OC(=O)c2ccccc2)[C@@H](O)[C@H](O)[C@@H]1O [Product 61, (1R,3R,4R,5S)-3-[2-O-Benzoyl-3-O-((1S)-1-carboxy-2-cyclohexyl-ethyl)-(β-D-galactopyranosyl)oxy]-4-[(α-L-fucopyranosyl)oxy]-5-methyl-N-(2-{1-[2-(5-nitro-1H-indol-1-yl)ethyl]-1H-1,2,3-triazol-4-yl}ethyl)cyclohexanecarboxamide] | – | > 89 nM
7 | C[C@@H]1O[C@@H](O[C@@H]2[C@@H](C)C[C@@H](C(=O)NCCCc3cn(CCn4ccc5cc([N+](=O)[O-])ccc54)nn3)C[C@H]2O[C@@H]2O[C@H](CO)[C@H](O)[C@H](O[C@@H](CC3CCCCC3)C(=O)O)[C@H]2OC(=O)c2ccccc2)[C@@H](O)[C@H](O)[C@@H]1O [Product 65, (1R,3R,4R,5S)-3-[2-O-Benzoyl-3-O-((1S)-1-carboxy-2-cyclohexyl-ethyl)-(β-D-galactopyranosyl)oxy]-4-[(α-L-fucopyranosyl)oxy]-5-methyl-N-(3-{1-[2-(5-nitro-1H-indol-1-yl)ethyl]-1H-1,2,3-triazol-4-yl}propyl)cyclohexanecarboxamide] | – | > 89 nM
8 | C[C@@H]1O[C@@H](O[C@@H]2[C@@H](C)C[C@@H](C(=O)NCCCc3cn(CCCn4ccc5cc(N)ccc54)nn3)C[C@H]2O[C@@H]2O[C@H](CO)[C@H](O)[C@H](O[C@@H](CC3CCCCC3)C(=O)O)[C@H]2OC(=O)c2ccccc2)[C@@H](O)[C@H](O)[C@@H]1O [Product 76, (1R,3R,4R,5S)—N-(3-{1-[3-(5-Amino-1H-indol-1-yl)propyl]-1H-1,2,3-triazol-4-yl}propyl)-3-[2-O-benzoyl-3-O-((1S)-1-carboxy-2-cyclohexyl-ethyl)-(β-D-galactopyranosyl)oxy]-4-[(α-L-fucopyranosyl)oxy]-5-methylcyclohexanecarboxamide] | – | > 89 nM

Results, then the molecule that gave them:

Row | Kd [1] | Kd [2] | SMILES
9 | – | > 89 nM | C[C@@H]1O[C@@H](O[C@@H]2[C@@H](C)C[C@@H](C(=O)NCCCc3cn(CCCCn4ccc5cc([N+](=O)[O-])ccc54)nn3)C[C@H]2O[C@@H]2O[C@H](CO)[C@H](O)[C@H](O[C@@H](CC3CCCCC3)C(=O)O)[C@H]2OC(=O)c2ccccc2)[C@@H](O)[C@H](O)[C@@H]1O [Product 67, (1R,3R,4R,5S)-3-[2-O-Benzoyl-3-O-((1S)-1-carboxy-2-cyclohexyl-ethyl)-(β-D-galactopyranosyl)oxy]-4-[(α-L-fucopyranosyl)oxy]-5-methyl-N-(3-{1-[4-(5-nitro-1H-indol-1-yl)butyl]-1H-1,2,3-triazol-4-yl}propyl)cyclohexanecarboxamide]
10 | – | > 89 nM | C[C@@H]1O[C@@H](O[C@@H]2[C@@H](C)C[C@@H](C(=O)NCCc3cn(CCCn4ccc5cc([N+](=O)[O-])ccc54)nn3)C[C@H]2O[C@@H]2O[C@H](CO)[C@H](O)[C@H](O[C@@H](CC3CCCCC3)C(=O)O)[C@H]2OC(=O)c2ccccc2)[C@@H](O)[C@H](O)[C@@H]1O [Product 62, (1R,3R,4R,5S)-3-[2-O-Benzoyl-3-O-((1S)-1-carboxy-2-cyclohexyl-ethyl)-(β-D-galactopyranosyl)oxy]-4-[(α-L-fucopyranosyl)oxy]-5-methyl-N-(2-{1-[3-(5-nitro-1H-indol-1-yl)propyl]-1H-1,2,3-triazol-4-yl}ethyl)cyclohexanecarboxamide]
11 | – | > 89 nM | C[C@@H]1O[C@@H](O[C@@H]2[C@@H](C)C[C@@H](C(=O)NCc3cn(CCn4ccc5cc([N+](=O)[O-])ccc54)nn3)C[C@H]2O[C@@H]2O[C@H](CO)[C@H](O)[C@H](O[C@@H](CC3CCCCC3)C(=O)O)[C@H]2OC(=O)c2ccccc2)[C@@H](O)[C@H](O)[C@@H]1O [Product 57, (1R,3R,4R,5S)-3-[2-O-Benzoyl-3-O-((1S)-1-carboxy-2-cyclohexyl-ethyl)-(β-D-galactopyranosyl)oxy]-4-[(α-L-fucopyranosyl)oxy]-5-methyl-N-({1-[2-(5-nitro-1H-indol-1-yl)ethyl]-1H-1,2,3-triazol-4-yl}methyl)cyclohexanecarboxamide]
12 | – | > 89 nM | C[C@@H]1O[C@@H](O[C@@H]2[C@@H](C)C[C@@H](C(=O)NCc3cn(CCCCn4ccc5cc([N+](=O)[O-])ccc54)nn3)C[C@H]2O[C@@H]2O[C@H](CO)[C@H](O)[C@H](O[C@@H](CC3CCCCC3)C(=O)O)[C@H]2OC(=O)c2ccccc2)[C@@H](O)[C@H](O)[C@@H]1O [Product 59, (1R,3R,4R,5S)-3-[2-O-Benzoyl-3-O-((1S)-1-carboxy-2-cyclohexyl-ethyl)-(β-D-galactopyranosyl)oxy]-4-[(α-L-fucopyranosyl)oxy]-5-methyl-N-({1-[4-(5-nitro-1H-indol-1-yl)butyl]-1H-1,2,3-triazol-4-yl}methyl)cyclohexanecarboxamide]
